Active and inactive are the calls of the source.
What was measured:
[1] = molecular target: T1, Tumor necrosis factor (Homo sapiens, UniProt P01375); assay: analog potency on TNFa NF-kB signaling – cell-based, revised, SAR follow-up (AID 2337); format: functional
[2] = HEK-293T viability loss after treatment – luminescence, T-cell screen hits, cytotoxicity control for TCR NF-kB inhibitor project, dose response (AID 489026); format: functional, cell-based;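 note: cells exposed to compound about 14 hours before the viability readout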
[3] = molecular target: Sphingosine 1-phosphate receptor 2 (Homo sapiens, UniProt O95136); assay: Dose Response Cell Based Assay for Antagonists of the S1P2 Receptor. [Related pubchem assays: 856, 736 ]; format: functional
[4] = molecular target: T2, Nucleotide-binding oligomerization domain-containing protein 1 (Homo sapiens, UniProt Q9Y239); assay: blockers of NOD1 pathway activity – revised, SAR follow-up (AID 2333); format: functional
T2 sequence (Q9Y239 whole entry): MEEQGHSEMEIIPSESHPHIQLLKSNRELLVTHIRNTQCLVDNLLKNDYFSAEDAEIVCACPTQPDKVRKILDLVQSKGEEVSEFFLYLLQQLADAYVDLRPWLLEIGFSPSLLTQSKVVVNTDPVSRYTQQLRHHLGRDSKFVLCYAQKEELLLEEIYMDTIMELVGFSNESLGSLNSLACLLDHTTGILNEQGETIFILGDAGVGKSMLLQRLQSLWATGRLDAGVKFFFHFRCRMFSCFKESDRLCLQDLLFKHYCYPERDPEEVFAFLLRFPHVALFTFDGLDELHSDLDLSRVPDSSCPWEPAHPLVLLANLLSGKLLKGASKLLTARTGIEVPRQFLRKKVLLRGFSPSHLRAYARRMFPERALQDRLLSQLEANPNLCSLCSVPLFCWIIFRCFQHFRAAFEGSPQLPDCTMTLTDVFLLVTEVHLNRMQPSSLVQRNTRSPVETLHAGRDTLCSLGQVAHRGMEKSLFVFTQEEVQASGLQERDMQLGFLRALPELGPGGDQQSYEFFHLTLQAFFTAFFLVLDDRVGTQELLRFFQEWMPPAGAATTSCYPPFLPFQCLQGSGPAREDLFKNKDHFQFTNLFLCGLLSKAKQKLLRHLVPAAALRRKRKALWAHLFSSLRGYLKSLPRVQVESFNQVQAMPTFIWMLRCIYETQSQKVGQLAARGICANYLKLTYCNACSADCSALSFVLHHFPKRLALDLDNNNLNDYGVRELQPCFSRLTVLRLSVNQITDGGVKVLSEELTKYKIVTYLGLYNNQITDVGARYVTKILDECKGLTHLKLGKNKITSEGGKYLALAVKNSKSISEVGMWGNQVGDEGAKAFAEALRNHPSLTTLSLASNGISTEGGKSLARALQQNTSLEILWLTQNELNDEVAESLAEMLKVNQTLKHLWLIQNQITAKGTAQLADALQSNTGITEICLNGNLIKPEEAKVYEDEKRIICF

[5] = tested on: HEK293; assay: cells; conditions: Homo sapiens
[6] = molecular target: Cytochrome P450 3A4 (Homo sapiens, UniProt P08684);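 note: CYP3A4 tested as one member of a cytochrome P450 panel screen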
[7] = molecular target: CAAX prenyl protease 1 (Saccharomyces cerevisiae S288c, UniProt P47154); assay: yeast CAAX protease Ste24 inhibition – biochemical, S. cerevisiae, plate reader, cherry-pick, dose response (AID 488815)
[8] = molecular target: Disintegrin and metalloproteinase domain-containing protein 17 (Homo sapiens, UniProt P78536); assay: inhibition of ADAM17 substrate cleavage – biochemical, quenched FRET substrate, counter-screen for ADAM10 exosite inhibitor project, dose response (AID 743253)
[9] = Trypanosoma cruzi growth suppression in host cells – NIH3T3 host cells, beta-gal luminescence, confirmation (AID 2044); format: functional, cell-based;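 note: intracellular parasites grown in NIH/3T3 mouse fibroblasts as host cells; luminescent beta-galactosidase reporter signal from transgenic T. cruzi replicating inside host cells; inhibitors lower the luminescence signal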
[10] = molecular target: CAAX prenyl protease 2 (Homo sapiens, UniProt Q9Y256); assay: inhibition of Ras-converting CAAX protease Rce1 – biochemical, yeast membranes, quenched-peptide fluorescence, cherry-pick, dose response (AID 588849)
[11] = potency of ADAM10 substrate cleavage blockers – biochemical, QFRET, dose response (AID 743254);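 note: ADAM10 enzyme with the DM2 quenched FRET peptide as substrate; EDANS fluorescence gain as the protease cuts the substrate; inhibitor potency against ADAM10 proteolytic activity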
[12] = NIH3T3 cell viability loss – ATP luminescence, mouse fibroblasts, counter-screen, dose response (AID 2010); format: functional, cell-based;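 note: cells exposed to compound for about 90 hours before reading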
[13] = Luminescence Cell-Based Dose Response HTS to Identify Inhibitors of 5'UTR Stem-Loop Driven Prion Protein mRNA Translation in H4 Neuroglioblastoma Cells. [Related pubchem assays: 1827 (Project Summary), 1813 (Primary HTS)]; format: functional
[14] = alpha-synuclein stem-loop luciferase translation blockers – H4 neuroglioma cells, luminescence, confirmation (AID 1988); format: functional, cell-based
[15] = tested on: Streptococcus; assay: GAS UMAA2166 growth inhibition – luminescence, BacTiterGlo, counter-screen for streptokinase expression inhibitor project, dose response (AID 1915); format: functional, organism-based;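 note: potency for reduction of bacterial viability or growth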
[16] = molecular target: T3, G-protein coupled receptor 35 (Homo sapiens, UniProt Q9HC97); assay: SAR Analysis for the identification of Selective Antagonists of ERK1/2 Activity in GPR35-Overexpressing U2OS Cells. [Related pubchem assays: 2079, 2058 ]; format: functional, cell-based
[17] = molecular target: G-protein coupled receptor 55 (Homo sapiens, UniProt Q9Y2T6); assay: blockers of GPR55 signalling, imaged – imaging, image-based, counter-screen for GPR35 antagonist project, SAR follow-up (AID 2397); format: functional
[18] = molecular target: T4, Streptokinase A (Streptococcus pyogenes serotype M1, UniProt P10520); assay: viability-normalized secreted streptokinase activity reduction – plasminogen activation absorbance, OD405, dose response (AID 1914); format: functional, Streptococcus pyogenes M1 GAS;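 note: secreted streptokinase activity via plasminogen activation per viability signal from cell pellet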
T4 sequence (P10520 whole entry): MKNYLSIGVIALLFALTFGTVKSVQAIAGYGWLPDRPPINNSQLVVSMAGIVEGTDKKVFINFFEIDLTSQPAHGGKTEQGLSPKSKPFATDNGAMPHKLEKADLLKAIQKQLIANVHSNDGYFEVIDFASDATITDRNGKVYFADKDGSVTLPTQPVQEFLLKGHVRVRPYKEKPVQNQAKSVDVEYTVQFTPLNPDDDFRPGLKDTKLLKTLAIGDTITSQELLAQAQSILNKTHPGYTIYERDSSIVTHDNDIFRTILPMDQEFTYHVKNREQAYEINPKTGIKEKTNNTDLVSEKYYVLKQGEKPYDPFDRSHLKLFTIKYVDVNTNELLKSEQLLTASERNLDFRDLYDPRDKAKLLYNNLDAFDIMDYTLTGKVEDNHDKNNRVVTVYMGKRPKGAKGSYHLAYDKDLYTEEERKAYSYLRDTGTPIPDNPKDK

[19] = tested on: Streptococcus sp. 'group A'; assay: Streptococcus pyogenes SK(-)GAS viability under kanamycin – luminescence, BacTiterGlo, confirmation, counter-screen for streptokinase expression inhibitor project, dose response (AID 1900); format: functional, organism-based
[20] = molecular target: T5, Tyrosine-protein phosphatase non-receptor type 22 (Homo sapiens, UniProt Q9Y2R2); assay: SAR LYP1 Fluorescent Assay using OMFP substrate for In Vitro dose response studies - Set 3. [Related pubchem assays (depositor defined):AID1779, AID1784, AID2140, AID2686]; format: functional
T5 sequence (Q9Y2R2 whole entry): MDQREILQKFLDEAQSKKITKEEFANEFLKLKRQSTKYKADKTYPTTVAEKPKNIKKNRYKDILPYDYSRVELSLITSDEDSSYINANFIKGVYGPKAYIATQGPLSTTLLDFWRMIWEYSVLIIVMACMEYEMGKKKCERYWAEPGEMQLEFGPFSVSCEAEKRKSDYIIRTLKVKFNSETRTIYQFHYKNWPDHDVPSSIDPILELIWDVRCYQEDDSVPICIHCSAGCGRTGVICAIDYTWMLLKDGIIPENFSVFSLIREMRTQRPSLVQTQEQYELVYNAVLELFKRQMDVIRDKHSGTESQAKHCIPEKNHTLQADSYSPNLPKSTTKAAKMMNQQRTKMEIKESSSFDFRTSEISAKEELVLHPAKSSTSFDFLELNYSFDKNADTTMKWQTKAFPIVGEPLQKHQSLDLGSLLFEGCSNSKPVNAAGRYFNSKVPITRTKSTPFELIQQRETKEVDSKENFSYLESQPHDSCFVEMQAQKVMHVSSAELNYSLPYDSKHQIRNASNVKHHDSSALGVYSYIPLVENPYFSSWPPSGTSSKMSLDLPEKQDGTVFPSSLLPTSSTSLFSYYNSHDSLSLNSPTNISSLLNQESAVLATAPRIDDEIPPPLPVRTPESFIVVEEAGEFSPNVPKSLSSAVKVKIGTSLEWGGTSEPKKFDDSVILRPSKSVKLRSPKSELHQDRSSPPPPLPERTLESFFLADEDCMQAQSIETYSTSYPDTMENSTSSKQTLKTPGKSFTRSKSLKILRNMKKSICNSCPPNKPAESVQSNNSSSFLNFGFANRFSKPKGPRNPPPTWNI

[21] = molecular target: T3, G-protein coupled receptor 35; assay: inhibition of zaprinast-stimulated GPR35 beta-arrestin translocation – imaging, U2OS, beta-arrestin-GFP, zaprinast agonist, primary screen (AID 2058); format: functional;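 note: antagonist potency meaning inhibition of agonist-induced arrestin redistribution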
[22] = molecular target: T6, Tyrosine-protein phosphatase non-receptor type 7 (Homo sapiens, UniProt P35236); assay: inhibition of hematopoietic tyrosine phosphatase HePTP – biochemical, set 2, SAR follow-up (AID 449736); format: functional
T6 sequence (P35236 whole entry): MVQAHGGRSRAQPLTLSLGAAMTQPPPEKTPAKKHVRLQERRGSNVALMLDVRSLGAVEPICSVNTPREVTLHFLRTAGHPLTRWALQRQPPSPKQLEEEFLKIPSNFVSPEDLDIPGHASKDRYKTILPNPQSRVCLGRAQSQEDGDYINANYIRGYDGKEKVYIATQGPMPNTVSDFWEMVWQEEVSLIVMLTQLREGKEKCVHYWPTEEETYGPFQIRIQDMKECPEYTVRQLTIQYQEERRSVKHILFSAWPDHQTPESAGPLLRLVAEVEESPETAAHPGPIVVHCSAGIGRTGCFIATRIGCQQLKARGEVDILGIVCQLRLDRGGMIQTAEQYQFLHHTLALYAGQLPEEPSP

[23] = molecular target: Tyrosine-protein phosphatase non-receptor type 12 (Homo sapiens, UniProt Q05209); assay: SAR Selectivity Analysis of small molecule inhibitors of PEST using pCAP in a fluorescence assay. [Related pubchem assays (depositor defined):AID1779, AID1784, AID2135]; format: functional
[24] = luciferase reporter signal suppression in cells – H4 neuroglioma cells, luminescence, dose response (AID 1990); format: functional, cell-based
[25] = molecular target: Cytochrome P450 2C19 (Homo sapiens, UniProt P33261); assay: Cytochrome panel assay with activity outcomes. Panel member name: p450-cyp2c19 Compounds with AC50 equal or less than 10 uM are considered active; format: functional
[26] = molecular target: Cytochrome P450 2D6 (Homo sapiens, UniProt P10635);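 note: CYP2D6 member of a cytochrome P450 panel assay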
[27] = molecular target: T1, Tumor necrosis factor; assay: analog potency on TNFa NF-kB signaling – cell-based, set 3, SAR follow-up (AID 2801); format: functional
[28] = molecular target: Nucleotide-binding oligomerization domain-containing protein 2 (Homo sapiens, UniProt Q9HC29); assay: inhibition of MDP-driven NOD2 NF-kB reporter – cell-based, set 3, SAR follow-up (AID 2799); format: functional
[29] = tested on: HEK293; assay: SAR analysis of compounds that are cytotoxic to HEK293 - Set 3. [Related pubchem assays (depositor defined):AID1575, AID1578, AID1848, AID1849, AID2001, AID2333, AID2334, AID2335, AID2337, AID2469]; format: functional, cell-based; conditions: Homo sapiens
[30] = molecular target: T2, Nucleotide-binding oligomerization domain-containing protein 1; assay: SAR analysis of compounds that inhibit NOD1 - Set 3. [Related pubchem assays (depositor defined):AID1566, AID1575, AID1578, AID1849, AID1852, AID2333, AID2335, AID2466]; format: functional
[31] = molecular target: Lysine-specific demethylase 4A (Homo sapiens, UniProt O75164); assay: inhibition of JMJD2A H3K9me3 demethylation – biochemical, DELFIA europium, cherry-picked samples, selectivity assay for GASC-1 inhibitor project, dose response (AID 488840)
[32] = Luminescence Cell-Based Dose Retest to Confirm Inhibitors of Cancer Stem Cells. [Related pubchem assays (depositor defined):AID2717, AID2721]; format: functional; conditions: Homo sapiens
[33] = viability loss of HMLE_sh_eGFP cells – cell-based, luminescence, counter-screen for HMLE_sh_ECad selective toxicity project, dose response (AID 463074); format: functional, Homo sapiens;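 note: HMLE human mammary epithelial cells expressing control shRNA against eGFP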

T3 sequence (Q9HC97 whole entry): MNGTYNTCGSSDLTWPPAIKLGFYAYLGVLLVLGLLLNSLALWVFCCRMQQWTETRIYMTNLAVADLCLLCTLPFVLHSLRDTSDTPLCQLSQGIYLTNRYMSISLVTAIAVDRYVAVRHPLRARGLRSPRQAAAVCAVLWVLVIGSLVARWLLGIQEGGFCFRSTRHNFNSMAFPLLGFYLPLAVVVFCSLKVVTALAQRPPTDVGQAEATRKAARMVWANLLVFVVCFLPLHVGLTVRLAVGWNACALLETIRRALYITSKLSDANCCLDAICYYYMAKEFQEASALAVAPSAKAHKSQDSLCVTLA
T1 sequence (P01375 whole entry): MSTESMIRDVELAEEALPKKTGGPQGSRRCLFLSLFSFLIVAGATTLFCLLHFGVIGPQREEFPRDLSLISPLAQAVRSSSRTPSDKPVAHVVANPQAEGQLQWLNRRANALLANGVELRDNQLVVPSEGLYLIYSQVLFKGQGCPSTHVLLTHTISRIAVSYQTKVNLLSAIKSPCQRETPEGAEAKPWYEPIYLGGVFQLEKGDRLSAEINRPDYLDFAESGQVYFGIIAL
Tyrosine-protein phosphatase non-receptor type 12, sequence (Q05209 whole entry): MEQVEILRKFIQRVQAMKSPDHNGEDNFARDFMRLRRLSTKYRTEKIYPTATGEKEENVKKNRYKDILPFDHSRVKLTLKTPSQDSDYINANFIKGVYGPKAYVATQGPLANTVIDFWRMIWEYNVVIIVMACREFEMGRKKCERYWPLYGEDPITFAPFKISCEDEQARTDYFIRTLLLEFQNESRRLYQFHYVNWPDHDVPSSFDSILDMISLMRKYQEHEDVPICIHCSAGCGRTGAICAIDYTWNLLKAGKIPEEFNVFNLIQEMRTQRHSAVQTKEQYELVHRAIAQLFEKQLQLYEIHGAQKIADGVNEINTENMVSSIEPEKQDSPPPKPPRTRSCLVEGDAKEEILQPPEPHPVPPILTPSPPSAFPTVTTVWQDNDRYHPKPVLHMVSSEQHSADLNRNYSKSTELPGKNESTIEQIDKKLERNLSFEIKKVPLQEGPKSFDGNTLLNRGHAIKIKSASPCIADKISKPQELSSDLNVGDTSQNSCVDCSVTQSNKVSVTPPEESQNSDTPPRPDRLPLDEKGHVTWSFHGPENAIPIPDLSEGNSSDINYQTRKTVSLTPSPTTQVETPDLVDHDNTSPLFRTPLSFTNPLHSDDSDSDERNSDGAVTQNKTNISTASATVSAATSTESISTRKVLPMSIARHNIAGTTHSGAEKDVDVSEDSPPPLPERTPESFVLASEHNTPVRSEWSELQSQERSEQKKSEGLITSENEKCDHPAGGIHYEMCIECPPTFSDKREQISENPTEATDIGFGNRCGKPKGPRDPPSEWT
Lysine-specific demethylase 4A, sequence (O75164 whole entry): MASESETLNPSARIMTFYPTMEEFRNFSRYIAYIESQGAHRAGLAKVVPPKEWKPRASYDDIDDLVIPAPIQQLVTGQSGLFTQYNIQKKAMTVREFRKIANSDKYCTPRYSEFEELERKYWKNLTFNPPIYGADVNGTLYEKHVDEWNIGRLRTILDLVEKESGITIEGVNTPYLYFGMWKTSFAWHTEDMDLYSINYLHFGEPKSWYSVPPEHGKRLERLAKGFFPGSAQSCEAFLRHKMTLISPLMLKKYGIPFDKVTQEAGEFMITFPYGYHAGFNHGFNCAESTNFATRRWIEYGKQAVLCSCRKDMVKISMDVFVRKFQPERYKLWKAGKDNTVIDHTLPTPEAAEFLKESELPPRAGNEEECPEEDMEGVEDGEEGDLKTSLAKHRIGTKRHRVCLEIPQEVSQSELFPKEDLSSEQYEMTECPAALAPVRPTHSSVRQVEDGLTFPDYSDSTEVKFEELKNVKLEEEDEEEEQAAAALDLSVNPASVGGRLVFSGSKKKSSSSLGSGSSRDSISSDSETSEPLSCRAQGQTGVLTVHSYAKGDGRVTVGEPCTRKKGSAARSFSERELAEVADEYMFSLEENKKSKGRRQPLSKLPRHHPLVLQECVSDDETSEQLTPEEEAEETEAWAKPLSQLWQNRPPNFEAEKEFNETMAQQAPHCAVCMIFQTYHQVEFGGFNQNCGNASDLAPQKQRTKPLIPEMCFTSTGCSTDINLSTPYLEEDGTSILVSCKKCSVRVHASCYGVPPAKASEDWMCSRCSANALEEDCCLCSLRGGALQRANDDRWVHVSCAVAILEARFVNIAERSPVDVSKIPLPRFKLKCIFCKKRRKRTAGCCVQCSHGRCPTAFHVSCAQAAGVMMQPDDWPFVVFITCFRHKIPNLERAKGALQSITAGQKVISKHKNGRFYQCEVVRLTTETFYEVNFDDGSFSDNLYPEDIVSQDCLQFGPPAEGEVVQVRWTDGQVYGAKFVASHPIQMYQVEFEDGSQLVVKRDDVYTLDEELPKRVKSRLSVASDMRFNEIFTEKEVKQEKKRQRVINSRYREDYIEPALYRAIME
Cytochrome P450 2C19, sequence (P33261 whole entry): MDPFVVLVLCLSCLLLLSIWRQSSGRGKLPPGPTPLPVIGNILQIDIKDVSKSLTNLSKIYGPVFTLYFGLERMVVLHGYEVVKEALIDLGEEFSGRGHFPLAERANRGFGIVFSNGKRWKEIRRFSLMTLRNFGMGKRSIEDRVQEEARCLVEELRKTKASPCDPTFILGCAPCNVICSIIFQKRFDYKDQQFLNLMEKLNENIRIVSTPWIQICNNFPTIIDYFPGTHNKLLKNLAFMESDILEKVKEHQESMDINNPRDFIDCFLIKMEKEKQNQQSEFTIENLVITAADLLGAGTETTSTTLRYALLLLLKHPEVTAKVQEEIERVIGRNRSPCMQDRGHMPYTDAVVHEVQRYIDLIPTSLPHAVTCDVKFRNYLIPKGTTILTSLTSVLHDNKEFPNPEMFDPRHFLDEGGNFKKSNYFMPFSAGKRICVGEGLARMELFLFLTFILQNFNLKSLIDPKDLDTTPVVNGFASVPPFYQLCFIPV
CAAX prenyl protease 1, sequence (P47154 whole entry, the tested form may be a part): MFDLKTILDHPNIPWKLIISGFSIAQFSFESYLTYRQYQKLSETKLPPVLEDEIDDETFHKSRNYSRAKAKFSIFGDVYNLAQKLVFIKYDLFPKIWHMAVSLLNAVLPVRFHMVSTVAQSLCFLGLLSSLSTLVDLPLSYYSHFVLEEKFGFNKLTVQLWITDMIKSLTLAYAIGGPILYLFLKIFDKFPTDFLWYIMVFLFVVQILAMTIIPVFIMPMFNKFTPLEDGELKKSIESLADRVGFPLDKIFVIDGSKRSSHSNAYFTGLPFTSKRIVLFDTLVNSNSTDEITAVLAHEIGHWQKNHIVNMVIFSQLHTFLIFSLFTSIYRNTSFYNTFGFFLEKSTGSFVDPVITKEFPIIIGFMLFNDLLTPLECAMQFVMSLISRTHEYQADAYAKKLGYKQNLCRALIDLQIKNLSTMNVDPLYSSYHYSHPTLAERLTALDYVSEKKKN
CAAX prenyl protease 2, sequence (Q9Y256 whole entry): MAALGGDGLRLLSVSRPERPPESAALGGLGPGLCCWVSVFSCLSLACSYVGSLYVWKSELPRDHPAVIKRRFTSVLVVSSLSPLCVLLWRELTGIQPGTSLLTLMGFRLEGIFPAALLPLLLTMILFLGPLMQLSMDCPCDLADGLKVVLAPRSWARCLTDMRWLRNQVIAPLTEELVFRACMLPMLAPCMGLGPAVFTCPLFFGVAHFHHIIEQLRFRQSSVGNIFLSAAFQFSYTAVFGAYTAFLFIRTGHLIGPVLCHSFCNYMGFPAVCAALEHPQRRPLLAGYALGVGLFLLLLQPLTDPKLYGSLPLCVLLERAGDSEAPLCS
Sphingosine 1-phosphate receptor 2, sequence (O95136 whole entry, the tested form may be a part): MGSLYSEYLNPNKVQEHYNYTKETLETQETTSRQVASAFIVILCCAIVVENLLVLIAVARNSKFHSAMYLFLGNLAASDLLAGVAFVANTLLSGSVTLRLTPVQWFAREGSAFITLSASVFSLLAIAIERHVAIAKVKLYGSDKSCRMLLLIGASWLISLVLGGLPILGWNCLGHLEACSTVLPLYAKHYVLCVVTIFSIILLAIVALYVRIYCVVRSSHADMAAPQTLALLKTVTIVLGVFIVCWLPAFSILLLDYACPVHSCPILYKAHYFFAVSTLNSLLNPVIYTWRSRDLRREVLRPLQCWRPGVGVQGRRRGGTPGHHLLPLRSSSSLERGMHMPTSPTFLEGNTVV
Cytochrome P450 3A4, sequence (P08684 whole entry): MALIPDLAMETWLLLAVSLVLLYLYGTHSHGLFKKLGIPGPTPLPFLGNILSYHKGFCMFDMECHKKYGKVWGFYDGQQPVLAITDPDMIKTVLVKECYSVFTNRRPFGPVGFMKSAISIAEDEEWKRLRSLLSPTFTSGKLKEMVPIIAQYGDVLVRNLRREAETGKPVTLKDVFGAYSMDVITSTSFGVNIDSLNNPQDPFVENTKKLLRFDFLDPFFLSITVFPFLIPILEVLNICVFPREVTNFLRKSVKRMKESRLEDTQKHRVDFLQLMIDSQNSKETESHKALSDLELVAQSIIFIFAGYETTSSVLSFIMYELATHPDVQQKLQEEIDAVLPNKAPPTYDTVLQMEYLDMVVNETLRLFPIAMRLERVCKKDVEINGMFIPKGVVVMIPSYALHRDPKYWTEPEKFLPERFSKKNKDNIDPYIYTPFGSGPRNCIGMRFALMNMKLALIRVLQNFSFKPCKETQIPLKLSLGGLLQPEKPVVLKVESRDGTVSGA
G-protein coupled receptor 55, sequence (Q9Y2T6 whole entry): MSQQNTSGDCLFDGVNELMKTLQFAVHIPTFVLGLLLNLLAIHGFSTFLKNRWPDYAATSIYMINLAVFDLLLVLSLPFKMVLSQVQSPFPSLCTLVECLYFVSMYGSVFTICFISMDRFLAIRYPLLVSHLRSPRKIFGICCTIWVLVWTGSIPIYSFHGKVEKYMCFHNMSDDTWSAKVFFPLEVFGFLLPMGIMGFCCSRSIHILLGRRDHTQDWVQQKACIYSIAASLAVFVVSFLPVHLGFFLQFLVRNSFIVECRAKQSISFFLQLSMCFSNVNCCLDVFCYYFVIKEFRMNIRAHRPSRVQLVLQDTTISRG

For O=C(Nc1ccc(S(=O)(=O)N2CCOCC2)cc1)c1ccc(CN2CCc3ccccc3C2)cc1, the IC50 [1] was 0.627 µM (active), the IC50 [2] was > 80 µM (inactive) and the IC50 [3] was 3.77 µM (active). For the same compound, the IC50 [4] was 0.347 µM (active), the IC50 [5] was 5.46 µM (active) and the AC50 [6] was “inconclusive”.
For NC(=O)[C@@H]1CC2(CC(c3cccc(NC(=O)CC(c4ccccc4)c4ccccc4)c3)=NO2)CN1C(=O)c1ccc(Cl)cc1 (stereo partly drawn), the AC50 [7] was 5.27 µM (active), the IC50 [8] was > 69.5 µM (inactive) and the EC50 [9] was 0.619 µM (active). The AC50 [10] was 41.7 µM (active), the IC50 [11] was > 7.72 µM (active) and the EC50 [12] was > 60 µM (not active).
With CCc1ccc(/C=C2\SC(=S)N(CCCC(=O)Nc3ccc(C(=O)O)cc3)C2=O)cc1 the EC50 [13] was 7.61 µM (active), the EC50 [14] was 3.67 µM (active) and the EC50 [15] was > 150 µM (not active). For the same compound, the IC50 [16] was 0.636 µM (active), the IC50 [17] was 17.3 µM (inactive) and the EC50 [18] was > 150 µM (not active). The EC50 [19] was 7.29 µM (active), the IC50 [20] was 76.8 µM (active) and the IC50 [21] was < 0.5 µM (active). The IC50 [22] was 0.581 µM (active), the IC50 [23] was 9.28 µM (active) and the EC50 [24] was 0.248 µM (active).
For CC[C@@]1([N+](=O)[O-])C[C@H]2C=C[C@@H]1C2.CC[C@@]1([N+](=O)[O-])C[C@H]2C=C[C@@H]1C2, the AC50 [25] was “inconclusive” and the AC50 [26] was “inconclusive”.
With Nc1nc2ccccc2n1S(=O)(=O)c1ccc(Cl)c(Cl)c1 the IC50 [27] was > 20 µM (inactive), the IC50 [28] was > 20 µM (inactive) and the IC50 [29] was > 20 µM (inactive). For the same compound, the IC50 [30] was 0.529 µM (active).
In the case of Cc1ccc(S(=O)(=O)Nc2ccc3c(c2)CC(=O)N([C@H](C)CO)C[C@@H](C)[C@H](CN(C)S(=O)(=O)c2ccccc2)O3)cc1, the AC50 [31] is reported as > 60 µM (inactive).
For COc1cc(F)cc(-c2ccc3c(c2)c(-c2cccs2)c(-c2cc(OC)cc(OC)c2)n3C)c1, the AC50 [32] was 16.5 µM (active) and the AC50 [33] was 26.5 µM (active).
